In patent US20110200992A1, “Biological Compositions, Articles and Methods for Monitoring Sterilization Processes” (priority 2008, published 2011):

Tested on: spores
Experiment: Fluorescence over a range of dye concentrations with decreasing concentrations of spores (Example 5)
Assay type: cell-based, Gb. stearothermophilus
Settings: ex 485/em 530 nm, 50° C.
Experimental: Dilutions were prepared using Sterile Water For Irrigation (Baxter, Deerfield, Ill.) and tested at a final population ranging between of 1×10^6 and 0 spores. The spore dilutions (100 microlitres) were combined with 200 microlitres of medium, consisting of Acridine Orange and nutrients as described in Example 1, with Acridine Orange concentrations at 1:5000 (0.0066 mM), 1:1000 (0.033 mM) and 1:500 (0.066 mM), each of the resulting mixtures was added to a well of a plate. The plate was subsequently placed in a preheated plate reader (BioTek Synergy 4 plate reader, Winooski, Vt.) at 50° C. and incubated for 60 min, during which fluorescence intensity readings were taken using excitation at 485 nm and emission at 530 nm. A summary of the normalized data is listed below in Table 5a-5c.

For `CN(C)c1ccc2cc3ccc(N(C)C)cc3nc2c1` [Acridine Orange], the “Fluorescence intensity (normalized)” value (dye 0.0066 mM with nutrients, E4 spores, 0:30:00) was 4088, the “Fluorescence intensity (normalized)” value (dye 0.0066 mM with nutrients, E4 spores, 0:45:00) was 4174 and the “Fluorescence intensity (normalized)” value (dye 0.0066 mM with nutrients, E4 spores, 1:00:00) was 4268. The “Fluorescence intensity (normalized)” value (dye 0.0066 mM with nutrients, E5 spores, 0:00:00) was 0, the “Fluorescence intensity (normalized)” value (dye 0.0066 mM with nutrients, E5 spores, 0:15:00) was 5224 and the “Fluorescence intensity (normalized)” value (dye 0.0066 mM with nutrients, E5 spores, 0:30:00) was 5364. The “Fluorescence intensity (normalized)” value (dye 0.0066 mM with nutrients, E5 spores, 0:45:00) was 5373, the “Fluorescence intensity (normalized)” value (dye 0.0066 mM with nutrients, E5 spores, 1:00:00) was 5406 and the “Fluorescence intensity (normalized)” value (dye 0.0066 mM with nutrients, E6 spores, 0:00:00) was 0. For the same compound, the “Fluorescence intensity (normalized)” value (dye 0.0066 mM with nutrients, E6 spores, 0:15:00) was 12024.5, the “Fluorescence intensity (normalized)” value (dye 0.0066 mM with nutrients, E6 spores, 0:30:00) was 15320 and the “Fluorescence intensity (normalized)” value (dye 0.0066 mM with nutrients, E6 spores, 0:45:00) was 16514.5. For the same compound, the “Fluorescence intensity (normalized)” value (dye 0.0066 mM with nutrients, E6 spores, 1:00:00) was 17130.5, the “Fluorescence intensity (normalized)” value (dye 0.033 mM with nutrients, 0 spores, 0:00:00) was 0 and the “Fluorescence intensity (normalized)” value (dye 0.033 mM with nutrients, 0 spores, 0:15:00) was 740. For the same compound, the “Fluorescence intensity (normalized)” value (dye 0.033 mM with nutrients, 0 spores, 0:30:00) was 958, the “Fluorescence intensity (normalized)” value (dye 0.033 mM with nutrients, 0 spores, 0:45:00) was 1143.5 and the “Fluorescence intensity (normalized)” value (dye 0.033 mM with nutrients, 0 spores, 1:00:00) was 1280. For the same compound, the “Fluorescence intensity (normalized)” value (dye 0.033 mM with nutrients, E3 spores, 0:00:00) was 0, the “Fluorescence intensity (normalized)” value (dye 0.033 mM with nutrients, E3 spores, 0:15:00) was 2022.5 and the “Fluorescence intensity (normalized)” value (dye 0.033 mM with nutrients, E3 spores, 0:30:00) was 2281. The “Fluorescence intensity (normalized)” value (dye 0.033 mM with nutrients, E3 spores, 0:45:00) was 2437, the “Fluorescence intensity (normalized)” value (dye 0.033 mM with nutrients, E3 spores, 1:00:00) was 2558.5 and the “Fluorescence intensity (normalized)” value (dye 0.033 mM with nutrients, E4 spores, 0:00:00) was 0. The “Fluorescence intensity (normalized)” value (dye 0.033 mM with nutrients, E4 spores, 0:15:00) was 3467, the “Fluorescence intensity (normalized)” value (dye 0.033 mM with nutrients, E4 spores, 0:30:00) was 3640.5 and the “Fluorescence intensity (normalized)” value (dye 0.033 mM with nutrients, E4 spores, 0:45:00) was 3724. The “Fluorescence intensity (normalized)” value (dye 0.033 mM with nutrients, E4 spores, 1:00:00) was 3810.5, the “Fluorescence intensity (normalized)” value (dye 0.033 mM with nutrients, E5 spores, 0:00:00) was 0 and the “Fluorescence intensity (normalized)” value (dye 0.033 mM with nutrients, E5 spores, 0:15:00) was 5012. For the same compound, the “Fluorescence intensity (normalized)” value (dye 0.033 mM with nutrients, E5 spores, 0:30:00) was 5029, the “Fluorescence intensity (normalized)” value (dye 0.033 mM with nutrients, E5 spores, 0:45:00) was 4999 and the “Fluorescence intensity (normalized)” value (dye 0.033 mM with nutrients, E5 spores, 1:00:00) was 5068. For the same compound, the “Fluorescence intensity (normalized)” value (dye 0.033 mM with nutrients, E6 spores, 0:00:00) was 0, the “Fluorescence intensity (normalized)” value (dye 0.033 mM with nutrients, E6 spores, 0:15:00) was 14427.5 and the “Fluorescence intensity (normalized)” value (dye 0.033 mM with nutrients, E6 spores, 0:30:00) was 19073.5. For the same compound, the “Fluorescence intensity (normalized)” value (dye 0.033 mM with nutrients, E6 spores, 0:45:00) was 20802.5, the “Fluorescence intensity (normalized)” value (dye 0.033 mM with nutrients, E6 spores, 1:00:00) was 21688 and the “Fluorescence intensity (normalized)” value (dye 0.066 mM with nutrients, 0 spores, 0:00:00) was 0.0. The “Fluorescence intensity (normalized)” value (dye 0.066 mM with nutrients, 0 spores, 0:15:00) was 815.5, the “Fluorescence intensity (normalized)” value (dye 0.066 mM with nutrients, 0 spores, 0:30:00) was 1026.0 and the “Fluorescence intensity (normalized)” value (dye 0.066 mM with nutrients, 0 spores, 0:45:00) was 1184.5. The “Fluorescence intensity (normalized)” value (dye 0.066 mM with nutrients, 0 spores, 1:00:00) was 1287.5, the “Fluorescence intensity (normalized)” value (dye 0.066 mM with nutrients, E3 spores, 0:00:00) was 0.0 and the “Fluorescence intensity (normalized)” value (dye 0.066 mM with nutrients, E3 spores, 0:15:00) was 3420.0. For the same compound, the “Fluorescence intensity (normalized)” value (dye 0.066 mM with nutrients, E3 spores, 0:30:00) was 3716.0, the “Fluorescence intensity (normalized)” value (dye 0.066 mM with nutrients, E3 spores, 0:45:00) was 3902.5 and the “Fluorescence intensity (normalized)” value (dye 0.066 mM with nutrients, E3 spores, 1:00:00) was 4000.5. The “Fluorescence intensity (normalized)” value (dye 0.066 mM with nutrients, E4 spores, 0:00:00) was 0.0, the “Fluorescence intensity (normalized)” value (dye 0.066 mM with nutrients, E4 spores, 0:15:00) was 3261.5 and the “Fluorescence intensity (normalized)” value (dye 0.066 mM with nutrients, E4 spores, 0:30:00) was 3464.0. The “Fluorescence intensity (normalized)” value (dye 0.066 mM with nutrients, E4 spores, 0:45:00) was 3586.5, the “Fluorescence intensity (normalized)” value (dye 0.066 mM with nutrients, E4 spores, 1:00:00) was 3626.5 and the “Fluorescence intensity (normalized)” value (dye 0.066 mM with nutrients, E5 spores, 0:00:00) was 0.0. The “Fluorescence intensity (normalized)” value (dye 0.066 mM with nutrients, E5 spores, 0:15:00) was 3422.5, the “Fluorescence intensity (normalized)” value (dye 0.066 mM with nutrients, E5 spores, 0:30:00) was 3533.0 and the “Fluorescence intensity (normalized)” value (dye 0.066 mM with nutrients, E5 spores, 0:45:00) was 3606.0. The “Fluorescence intensity (normalized)” value (dye 0.066 mM with nutrients, E5 spores, 1:00:00) was 3616.0, the “Fluorescence intensity (normalized)” value (dye 0.066 mM with nutrients, E6 spores, 0:00:00) was 0.0 and the “Fluorescence intensity (normalized)” value (dye 0.066 mM with nutrients, E6 spores, 0:15:00) was 13727.5. The “Fluorescence intensity (normalized)” value (dye 0.066 mM with nutrients, E6 spores, 0:30:00) was 15331.5, the “Fluorescence intensity (normalized)” value (dye 0.066 mM with nutrients, E6 spores, 0:45:00) was 15529.5 and the “Fluorescence intensity (normalized)” value (dye 0.066 mM with nutrients, E6 spores, 1:00:00) was 15629.0.
